# Laboratory results: US8138189B2, “Substituted benzene compounds as modulators of the glucocorticoid receptor” (Hoffman-La Roche Inc., priority 2009, dated 2012)
# Molecular target: T1, full length human recombinant glucocorticoid receptor (Homo sapiens, UniProt P04150)
# T1 construct: partially purified full length human recombinant glucocorticoid receptor; purchased Panvera/Invitrogen PV4302
# T1 sequence (P04150 1-777): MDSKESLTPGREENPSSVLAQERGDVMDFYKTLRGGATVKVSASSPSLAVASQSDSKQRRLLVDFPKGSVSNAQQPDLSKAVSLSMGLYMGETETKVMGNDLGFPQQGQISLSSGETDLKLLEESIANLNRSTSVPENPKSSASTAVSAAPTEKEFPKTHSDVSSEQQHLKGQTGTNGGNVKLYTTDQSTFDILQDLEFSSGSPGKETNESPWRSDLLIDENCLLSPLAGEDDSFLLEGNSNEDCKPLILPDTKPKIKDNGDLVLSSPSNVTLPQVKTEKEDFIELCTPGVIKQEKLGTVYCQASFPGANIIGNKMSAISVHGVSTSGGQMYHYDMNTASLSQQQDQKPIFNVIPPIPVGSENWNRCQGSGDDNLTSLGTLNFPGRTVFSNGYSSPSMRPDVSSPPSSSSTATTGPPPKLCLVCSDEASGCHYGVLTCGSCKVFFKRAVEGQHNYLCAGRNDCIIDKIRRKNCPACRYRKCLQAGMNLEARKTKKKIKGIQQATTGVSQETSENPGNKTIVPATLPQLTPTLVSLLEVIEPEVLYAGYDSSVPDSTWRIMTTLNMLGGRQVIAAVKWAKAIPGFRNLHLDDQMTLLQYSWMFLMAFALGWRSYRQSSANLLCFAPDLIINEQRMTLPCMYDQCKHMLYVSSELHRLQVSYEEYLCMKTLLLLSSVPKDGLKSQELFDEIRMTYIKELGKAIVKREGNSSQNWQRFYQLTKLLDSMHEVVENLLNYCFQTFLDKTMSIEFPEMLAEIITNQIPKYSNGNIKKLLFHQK
# Assay: Glucocorticoid Receptor Binding Assay (fluorescence polarization competitor assay, Fluormone GS Far Red tracer)
# Method: Glucocorticoid Receptor Binding Assay
# The ability of the substances to bind to the glucocorticoid receptor was determined with the help of a commercial Glucocorticoid Receptor Competitor Assay far red kit provided by Panvera/Invitrogen (PV4302). This kit is used as provided by the supplier. It contains some partially purified full length human recombinant glucocorticoid receptor, a coactivator related GR stabilizing peptide, a tight-binding fluorescent GR ligand Fluormone™ GS Far Red as labeled tracer and a screening buffer. All reagents are prepared and the assay is run according to the recommendations of the kit manufacturer.
# Briefly, the GR stabilizing peptide and the human recombinant glucocorticoid receptor are both diluted with the screening buffer (pH 7.4) and are gently mixed (no vortexing) just before the assay and kept on ice until use. The fluorescent-labeled ligand is also diluted with the screening buffer just before the assay and kept on ice until use. The substances to test are pre-diluted in pure DMSO then some water is added to get an intermediate 4.2% DMSO stock solution. Ten microliter of the intermediate stock solution is gently mixed with 5 μl of diluted fluorescent-labeled ligand and 5 μl of diluted human recombinant glucocorticoid receptor in a 384-well plate (low volume, ultraclear, glass plate from Greiner ref 788896). The plate is centrifuged, sealed and incubated for 3 hours at 22° C. in the dark. The polarized fluorescence is measured with a Zeiss-HTS reader or any equivalent equipment (610-660 nm).
# All compounds were tested to determine IC50 in a serial dilution experiment. The concentration at which 50% inhibition of the fluorescent GR ligand Fluormone™ GS Far Red is obtained (the IC50) is determined after fitting with a sigmoidal dose-response model of a plot of the logarithm of the concentration versus percent inhibition measured for the different concentrations. Ki's were calculated from IC50 based on Cheng-Prusoff equation (Cheng, Y, Prusoff, W H (1973) Biochem Pharmacol 22, 3099-3108): Ki=IC50/[1+D/Kd] wherein D is the concentration of the fluorescent ligand and Kd is the binding constant for the fluorescent ligand binding to the receptor under the conditions used in the competition experiment.
row,SMILES,Ki
1,"COC(=O)c1ccc(Oc2ccc([C@@H](C)[C@@](O)(c3ccc(=O)n(C)c3)C(F)(F)F)c(Cl)c2)cc1 (relative stereo) [Example 151, 4-{3-Chloro-4-[3,3,3-trifluoro-2-hydroxy-1-methyl-2(1-methyl-6-oxo-1,6-dihydro-pyridin-3-yl)-propyl]-phenoxy}-benzoic acid methyl ester]",2.4 nM
2,"C[C@H](c1ccc(Oc2ccc(C(=O)O)cc2F)cc1Cl)[C@@](O)(c1ccc(=O)n(C)c1)C(F)(F)F (relative stereo) [Example 156, 4-{3-Chloro-4-[3,3,3-trifluoro-2-hydroxy-1-methyl-2-(1-methyl-6-oxo-1,6-dihydro-pyridin-3-yl)-propyl]-phenoxy}-3-fluoro-benzoic acid]",0.9 nM
3,"C[C@H](c1ccc(Oc2ccc(C(=O)O)cc2Cl)cc1Cl)[C@@](O)(c1ccc(=O)n(C)c1)C(F)(F)F (relative stereo) [Example 157, 3-Chloro-4-{3-chloro-4-[3,3,3-trifluoro-2-hydroxy-1-methyl-2(1-methyl-6-oxo-1,6-dihydro-pyridin-3-yl)-propyl]-phenoxy}-benzoic acid]",0.7 nM
4,"CCOC(=O)COc1ccc(Oc2ccc([C@@H](C)[C@@](O)(c3ccc(=O)n(C)c3)C(F)(F)F)c(Cl)c2)cc1 (relative stereo) [Example 159, (4-{3-Chloro-4-[3,3,3-trifluoro-2-hydroxy-1-methyl-2-(1-methyl-6-oxo-1,6-dihydro-pyridin-3-yl)-propyl]-phenoxy}-phenoxy)-acetic acid ethyl ester]",2 nM
5,"COC(=O)c1cnc(Oc2ccc([C@@H](C)[C@@](O)(c3ccc(=O)n(C)c3)C(F)(F)F)c(Cl)c2)cc1C(F)(F)F (relative stereo) [Example 163, 6-{3-Chloro-4-[3,3,3-trifluoro-2-hydroxy-1-methyl-2-(1-methyl-6-oxo-1,6-dihydro-pyridin-3-yl)-propyl]-phenoxy}-4-trifluoromethyl-nicotinic acid methyl ester]",23.8 nM
6,"C[C@H](c1ccc(-c2ccc(F)c(C(=O)O)c2)cc1Cl)[C@@](O)(c1ccc(=O)n(C)c1)C(F)(F)F (relative stereo) [Example 165, 3′-Chloro-4-fluoro-4′-[3,3,3-trifluoro-2-hydroxy-1-methyl-2-(1-methyl-6-oxo-1,6-dihydro-pyridin-3-yl)-propyl]-biphenyl-3-carboxylic acid]",28.3 nM
7,"C[C@@H](c1ccc(-c2ccc(CC(=O)O)cc2)cc1Cl)[C@](O)(c1ccc(=O)n(C)c1)C(F)(F)F (relative stereo) [Example 171, {3′-Chloro-4′-[3,3,3-trifluoro-2-hydroxy-1-methyl-2-(1-methyl-6-oxo-1,6-dihydro-pyridin-3-yl)-propyl]-biphenyl-4-yl}-acetic acid]",79.3 nM
8,"C[C@@H](c1ccc(Oc2ccc(C(=O)O)cc2)cc1Cl)[C@](O)(c1ccc(=O)[nH]c1)C(F)(F)F (relative stereo) [Example 175, 4-{3-Chloro-4-[3,3,3-trifluoro-2-hydroxy-1-methyl-2-(6-oxo-1,6-dihydro-pyridin-3-yl)-propyl]-phenoxy}-benzoic acid]",76.4 nM
9,"C[C@@H](c1ccc(-c2ccc(C(=O)O)c(Cl)c2)cc1Cl)[C@](O)(c1ccc(=O)[nH]c1)C(F)(F)F (relative stereo) [Example 179, 3,3′-Dichloro-4′-[3,3,3-trifluoro-2-hydroxy-1-methyl-2-(6-oxo-1,6-dihydro-pyridin-3-yl)-propyl]-biphenyl-4-carboxylic acid]",505 nM
10,"C[C@@H](c1ccc(-c2ccc(CC(=O)O)cc2)cc1Cl)[C@](O)(c1ccc(=O)[nH]c1)C(F)(F)F (relative stereo) [Example 182, {3′-Chloro-4′-[3,3,3-trifluoro-2-hydroxy-1-methyl-2-(6-oxo-1,6-dihydro-pyridin-3-yl)-propyl]-biphenyl-4-yl}-acetic acid]",412 nM
11,"CCOC(=O)c1cc(-c2ccc([C@H](C)[C@](O)(c3ccc(=O)n(CC)c3)C(F)(F)F)c(Cl)c2)ccc1F (relative stereo) [Example 183, 3′-Chloro-4′-[2-(1-ethyl-6-oxo-1,6-dihydro-pyridin-3-yl)-3,3,3-trifluoro-2-hydroxy-1-methyl-propyl]-4-fluoro-biphenyl-3-carboxylic acid ethyl ester]",7.5 nM
12,"CCn1cc([C@@](O)([C@@H](C)c2ccc(-c3ccc(C(=O)O)c(F)c3)cc2Cl)C(F)(F)F)ccc1=O (relative stereo) [Example 186, 3′-Chloro-4′-[2-(1-ethyl-6-oxo-1,6-dihydro-pyridin-3-yl)-3,3,3-trifluoro-2-hydroxy-1-methyl-propyl]-3-fluoro-biphenyl-4-carboxylic acid]",68.2 nM
13,"COC(=O)c1ccc(Oc2ccc(Cl)c([C@H](C)[C@](O)(c3ccc(=O)n(C)c3)C(F)(F)F)c2)cc1Cl (relative stereo) [Example 189, 2-Chloro-4-{4-chloro-3-[3,3,3-trifluoro-2-hydroxy-1-methyl-2-(1-methyl-6-oxo-1,6-dihydro-pyridin-3-yl)-propyl]-phenoxy}-benzoic acid methyl ester]",5.5 nM
14,"COC(=O)c1ccc(Oc2ccc([C@@H](C)[C@@](O)(c3ccc(=O)n(C)c3)C(F)(F)F)c(Cl)c2Cl)cc1 (relative stereo) [Example 197, 4-{2,3-Dichloro-4-[3,3,3-trifluoro-2-hydroxy-1-methyl-2-(1-methyl-6-oxo-1,6-dihydro-pyridin-3-yl)-propyl]-phenoxy}-benzoic acid methyl ester]",1.8 nM
15,"COC(=O)c1cnc(Oc2ccc([C@H](C)[C@](O)(c3cc(C)c(=O)n(C)c3)C(F)(F)F)c(Cl)c2)cc1C(F)(F)F (relative stereo) [Example 205, 6-{3-Chloro-4-[2-(1,5-dimethyl-6-oxo-1,6-dihydro-pyridin-3-yl)-3,3,3-trifluoro-2-hydroxy-1-methyl-propyl]-phenoxy}-4-trifluoromethyl-nicotinic acid methyl ester]",1.3 nM
16,"Cc1cc([C@@](O)([C@@H](C)c2ccc(Oc3ccc(C(=O)O)c(Cl)c3)cc2Cl)C(F)(F)F)cn(C)c1=O (relative stereo) [Example 208, 2-Chloro-4-{3-chloro-4-[2-(1,5-dimethyl-6-oxo-1,6-dihydro-pyridin-3-yl)-3,3,3-trifluoro-2-hydroxy-1-methyl-propyl]-phenoxy}-benzoic acid]",0.4 nM
17,"CCOC(=O)c1cc(Oc2ccc([C@H](C)[C@](O)(c3cc(C)c(=O)n(C)c3)C(F)(F)F)c(Cl)c2)ccc1Cl (relative stereo) [Example 210, 2-Chloro-5-{3-chloro-4-[2-(1,5-dimethyl-6-oxo-1,6-dihydro-pyridin-3-yl)-3,3,3-trifluoro-2-hydroxy-1-methyl-propyl]-phenoxy}-benzoic acid ethyl ester]",2 nM
18,"Cc1cc([C@@](O)([C@@H](C)c2ccc(Oc3ccc(F)c(C(=O)O)c3)cc2Cl)C(F)(F)F)cn(C)c1=O (relative stereo) [Example 213, 5-{3-Chloro-4-[2-(1,5-dimethyl-6-oxo-1,6-dihydro-pyridin-3-yl)-3,3,3-trifluoro-2-hydroxy-1-methyl-propyl]-phenoxy}-2-fluoro-benzoic acid]",0.4 nM
19,"Cc1cc([C@@](O)([C@@H](C)c2ccc(Oc3ccc(C(=O)O)cc3F)cc2Cl)C(F)(F)F)cn(C)c1=O (relative stereo) [Example 216, 4-{3-Chloro-4-[2-(1,5-dimethyl-6-oxo-1,6-dihydro-pyridin-3-yl)-3,3,3-trifluoro-2-hydroxy-1-methyl-propyl]-phenoxy}-3-fluoro-benzoic acid]",0.2 nM
